# According to patent publication US11065266B2, “Method of treating melanoma using an inhibitor of an atypical protein kinase C” (UNIVERSITY OF SOUTH FLORIDA, priority 2016, dated 2021):
# Columns and labels:
# MeWo cells [1] = experiment: Inhibitor dose response curves (cell counts after 3 days); type: cell-based, human
# Method: (§1) Dose curves (inhibitor concentrations vs cell population after 3 days) for ICA-1, ACPD, DND and ζ-Stat were obtained for all 3 cell lines as follows. PCS-200-013, SK-MEL-2 and MeWo cells (4×10^4) were cultured in 25 cm^2 flasks and treated with either equal volume of sterile water (vehicle control). Cells were treated every 24 h during 3 day incubation period and cells were then lifted using Trypsin-EDTA solution (1.5 mL/flask) and neutralized with the equal volume of media. Subsequently, live cells were counted using the Scepter, an automated cell counter from Millipore (Billerica, Mass.). The cell growth inhibition for all inhibitors for the two malignant cell lines (SK-MEL-2 and MeWo) were quantified by counting the viable cells at 24 hour intervals. Cell counts obtained from Scepter was compared with the counts obtained from the Cellometer Vision from Nexcelom Bioscience (Lawrence, Mass.).
# (§2) Dose curves for ACPD and DNDA were obtained to investigate the effect on cell proliferation of normal and malignant cell lines over a wide range of concentrations. […] ACPD decreased proliferation by 20% for 1.5 μM (p≤0.01), 48% for 2.5 μM (p≤0.01) and 51% for 3.5 μM (p≤0.001)(FIG. 5B). DNDA decreased by 17% for 500 nM (p≤0.01), 24% for 1.5 μM(p≤0.01), 52%) for 2.5 µM (p≤0.01) and 57 for 3.5 μM (p≤0.01)(FIG. 5C) in SK-MEL-2 cells. ACPD decreased proliferation by 28% for 500 nM (p≤0.01), 41% for 1.5 μM (p≤0.01), 54% for 2.5 µM (p≤0. 01) and 58% for 3.5 μM (p≤0.01) (FIG. 5D). DNDA decreased proliferation by 37% for 500 nM (p≤0.01), 41% for 1.5 μM (p≤0.01), 46% for 2.5 μM (p≤0.01) and 48% for 3.5 μM (p≤0.01) (FIG. 5E) in the MeWo cells.
# [2] = test system: PCS-200-013 normal melanocyte; experiment: as above; type: cell-based, human; settings: for effect on cell proliferation of normal melanocytes: dose curve
# Method: as §1, §2
# SK-MEL-2 cells = experiment: as above; type: cell-based, human
# Method: as §1, §2
# [3] = test system: malignant melanoma cells (SK-MEL-2 and MeWo); experiment: Viable cell counts, malignant cell lines taken together; type: cell-based; settings: Homo sapiens; for IC50: from dose curves of cell proliferation, read-out: half maximal inhibitory concentration (IC50)
# Method: as §1, §2
# To test the effects of ζ-Stat on malignant cells approximately 4×10^4 of cells were cultured in 25 cm2 flasks and treated with either equal volume of sterile water (control) or ζ-Stat (0.1-10 μM). Additional doses of sterile water or inhibitor were supplied every 24 h during 3 day incubation period. Subsequently, cells were lifted and counted. Cells were quantified by counting the viable cells at 24 hour intervals. […] N=3 experiments were performed for each cell line and mean±SD are plotted.
# MeWo cells [4] = experiment: Western blot of protein levels; type: cell-based, human; parameters: concentration or dose not given beside the values; settings: vs respective control
# Method: Approximately 2×10^5 cells from PCS-200-013 and SK-MEL-2 cell lines were plated in T25 flasks until they become 70% confluent. Confluent cells were semi-synchronized by contact inhibition and serum starvation for 48 hrs. Subsequently, cells were incubated with serum and atypical inhibitors. The cells were removed at specific times and were placed in ice to terminate the incubation. Cells were washed at least two times with ice cold DPBS. Cells were then scrapped, re-suspended and sonicated in 500 μL of homogenization buffer (50 mM HEPES—pH 7.5), 150 mM NaCl, 0.1% Triton X, 1 mM EDTA (ethylenediaminetetraacetic acid), 2 mM EGTA [glycol-bis (2-aminoethylether)-N, N, N′,N′-tetraacetic acid], 0.1 mM orthovanadate, 1 mM NaF, 2 mM PMSF (phenylmethylsulphonylfluoride), 1 mM DTT (dithiothreitol) and 0.15 U/mL aprotinin. Cell suspensions was then sonicated and centrifuged at 100,000 g for 30 minutes. The protein concentrations was determined using Bradford method. Subsequently, approximately 800 μg of proteins were immunoprecipitated with the antibody against desired protein. In some cases cell lysates were suspended with anti-HFS-1 antibody, rocking overnight at 4° C. Agarose beds were added after 24 hrs. Then the complex of cell lysate-anti HSF-1 antibody-agarose beads was rocked at 4° C. for 2 hrs. After washing the beads, approximately […] the sample loading buffer was added to dissolve all the protein on the beads. Proteins were then separated on sodium dodecyl sulfate polyacrylamide gel electrophoresis (SDS-PAGE) and transblotted followed by immunoblotting with anti-PKC-ζ or anti-PKC-ι or anti-HSF-1 antibody or phosphospecific antibodies. Immunoreactive bands were visualized with enhanced chemiluminescence.
# Western blots (WB) were performed to investigate the effect of ACPD and DNDA on the expression of aPKCs on malignant melanoma. […] DNDA decreased the levels of PKC-ι by 52%, pPKC-ι by 33% in SK-MEL-2 cells and by 27% of PKC-ι and pPKC-ι by 20% in MeWo cells.
# DNDA reduced the levels of PKC-ζ by 33%, pPKC-ζ by only 17% in SK-MEL-2 cells and by 60% of PKC-ζ and pPKC-ζ by 29% in MeWo cells. All values (percent) were calculated compared to their respective control in Western blot. B-actin was used as the internal control to ensure that equal amounts of proteins were loaded in each lane in SDS-PAGE.
IC50 [3] [µM],Compound,decrease of proliferation (MeWo cells [1]; 500 nM) [%],decrease of proliferation (MeWo cells [1]; 1.5 μM) [%],decrease of proliferation (MeWo cells [1]; 2.5 μM) [%],decrease of proliferation (MeWo cells [1]; 3.5 μM) [%],effect on cell proliferation of normal melanocytes [2],decrease of proliferation (SK-MEL-2 cells; 1.5 μM) [%],decrease of proliferation (SK-MEL-2 cells; 2.5 μM) [%],decrease of proliferation (SK-MEL-2 cells; 3.5 μM) [%],reduction of PKC-ζ level (MeWo cells [4]) [%],reduction of PKC-ι level (MeWo cells [4]) [%],reduction of pPKC-ζ level (MeWo cells [4]) [%],reduction of pPKC-ι level (MeWo cells [4]) [%],"cytotoxicity at 2.5 µM ([3]; 2.5 μM, read-out: inhibition of cell viability according to cell counts) [%]","cytotoxicity at 5 µM ([3]; 5 μM, read-out: inhibition of cell viability according to cell counts) [%]","cytotoxicity at 10 µM ([3]; 10 μM, read-out: inhibition of cell viability according to cell counts) [%]",inhibition of cell proliferation of normal melanocytes ([2]; 3.5 μM) [%],decrease of proliferation (SK-MEL-2 cells; 500 nM) [%]
~2.5,"CC(=O)C1=C(O)CCC1=O [ACPD, 2-acetyl-1,3-cyclopentanedione]",28,41,54,58,did not show a significant effect,20,48,51,42,46,23,26,–,–,–,–,–
–,"O=S(=O)(O)c1cc(O)c2c(S(=O)(=O)O)cc(S(=O)(=O)O)cc2c1 [ζ-Stat, 8-hydroxy-1,3,6-naphthalenetrisulfonic acid]",–,–,–,–,–,–,–,–,–,–,–,–,20 to 25,~50,~50,–,–
~2.5,"Nc1c(S(=O)(=O)O)cc2cc(S(=O)(=O)O)ccc2c1N [DNDA, 3,4-diamino-2,7-naphthalenedisulfonic acid]",37,41,46,48,did not show a significant effect,24,52,57,60,27,29,20,–,–,–,13.5,17
